Results taken from patent publication US20260165953A1, “THE HIPPO PATHWAY AS A PHARMACOLOGIC TARGET FOR TREATING REFRACTIVE DISORDERS” (Centre for Eye and Vision Research Limited, priority 2022, published 2026).

Tests used:
[1] = system: form-deprivation myopia (FDM) in chicks; experiment: Unilateral form-deprivation myopia (FDM) in chicks, four intravitreal injections every alternate day, 7-day diffuser lens treatment; type: in vivo, White Leghorn chicks (Gallus gallus); conditions: for axial length, mean interocular difference ± SD / refractive error (myopic progression), mean interocular difference ± SD / increase in choroidal thickness compared to the vehicle group / choroidal thickness, mean interocular difference ± SD: after 7-day treatment; for axial length, mean interocular difference ± SD: vehicle 0.75±0.19 mm; for refractive error (myopic progression), mean interocular difference ± SD: vehicle −10.0±2.56 D; for choroidal thickness, mean interocular difference ± SD: vehicle 43.02±8.87 μm
Procedure: XMU-MP-1, known for its reversible and selective inhibition of MST1/2 (upstream to YAP/TAZ), leading to a significant increase in the activity of the Hippo pathway effector YAP, undergoes testing in a dose-dependent manner for its impact on form-deprivation myopia (FDM) in chicks.
White Leghorn chicks (Gallus gallus) from specific pathogen-free eggs (SPF, Jinan, China) are raised in standard cages with adequate food and water, maintaining a temperature of 25° C. and a 12 h:12 h light/dark cycle. The experimental period spans from postnatal 7 days (PN 7) to 14 days (PN 14). A unilateral FDM model is established using a published protocol, involving four intravitreal injections performed every alternate day. Following the first injection, diffuser lenses are attached to the right eye, with lenses covering only the XMU-MP-1 injected eye (unilateral FDM). XMU-MP- 1, dissolved in 10% DMSO with 90% Corn oil, is injected monocularly using a 0.3 mm (30 G)×8 mm needle into the vitreous through the skin, sclera, choroid, and retina close to the margin of the upper orbit. Contralateral eyes receive no lens treatment. Four concentrations of XMU-MP-1 (0.02, 0.2, 2, and 20 mmol/L) are selected for evaluation.
Animals are randomly assigned to five groups, encompassing the FDM with vehicle treatment group (vehicle group, 10% DMSO+90% Corn oil, n=14), FDM with 0.02 mmol/L XMU-MP-1 treatment group (XMU-MP-1, 0.02 mmol/L group, n=5), FDM with 0.2 mmol/L XMU-MP-1 treatment group (XMU-MP-1, 0.2 mmol/L group, n=5), FDM with 2 mmol/L XMU-MP-1 treatment group (XMU-MP-1, 2 mmol/L group, n=13), and FDM with 20 mmol/L XMU-MP-1 treatment group (XMU-MP-1, 20 mmol/L group, n=14).
Refractive errors are assessed using a streak retinoscope, and ocular parameters are measured with a high-frequency A-scan ultrasound system equipped with a 30 MHz transducer (Panametrics, Inc., Waltham, MA) before and after treatment. The spherical equivalent (S.E.) is derived from the refractive status (S.E.=spherical power+½ cylindrical power), and axial length is defined from the front of the cornea to the back of the vitreous chamber.
For statistical analysis, after the 7-day lens treatment period, interocular differences (the difference between the diffuser-treated eyes and the contralateral fellow eyes) are calculated for six ocular parameters (refractive error, anterior chamber depth, lens thickness, vitreous chamber depth (FIG. 4B), axial length, and choroidal thickness). Mean interocular differences±SD are presented, and the significance of the dose-effect is analyzed using ANOVA. Post hoc testing (Dunnett's method) is employed where appropriate, with significance levels denoted as follows: ns, not significant; *, P<0.05; **, P<0.01; ****, P<0.0001.

[2] = Signs of toxicity in animal models; type: in vivo
[3] = 2 mmol/L XMU-MP-1 intravitreal, n=13, P<0.001
[4] = 20 mmol/L XMU-MP-1 intravitreal, n=14, P<0.0001

Which results are given for `CN1C(=O)c2sccc2N(C)c2nc(Nc3ccc(S(N)(=O)=O)cc3)ncc21` [XMU-MP-1]?
axial length, mean interocular difference ± SD ([1]; 0.02 mmol/L XMU-MP-1 intravitreal, n=5): 0.73±0.13 mm; axial length, mean interocular difference ± SD ([1]; 0.2 mmol/L XMU-MP-1 intravitreal, n=5, P<0.001): 0.41±0.24 mm; refractive error (myopic progression), mean interocular difference ± SD ([1]; 0.2 mmol/L XMU-MP-1 intravitreal, n=5, P<0.01): −6.05±2.97 D; inhibition of myopia, based on refractive error and axial length data ([1]; 0.2 mmol/L group): about 40%; increase in choroidal thickness compared to the vehicle group ([1]; 2 mmol/L XMU-MP-1 intravitreal): about 50%; axial length, mean interocular difference ± SD [1, 3]: 0.36±0.20 mm; choroidal thickness, mean interocular difference ± SD [1, 3]: 22.07±15.13 μm; refractive error (myopic progression), mean interocular difference ± SD ([1]; 2 mmol/L XMU-MP-1 intravitreal, n=13, P<0.0001): −4.69±2.75 D; inhibition of myopia, based on refractive error and axial length data ([1]; 2 mmol/L group): about 53%; increase in choroidal thickness compared to the vehicle group ([1]; 20 mmol/L XMU-MP-1 intravitreal): ~70%; axial length, mean interocular difference ± SD [1, 4]: 0.27±0.22 mm; choroidal thickness, mean interocular difference ± SD [1, 4]: 12.83±17.96 μm; refractive error (myopic progression), mean interocular difference ± SD [1, 4]: −3.51±2.89 D; suppression of myopia development ([1]; highest dose tested (200 nmol)): about 65%; inhibition of lens-induced myopia ([1]; intravitreal injection): robustly inhibits lens-induced myopia; suppression of myopia progression, dose dependence ([1]; intravitreal injection, 0.02-20 mmol/L, ANOVA significant dose-response effect (p<0.0001)): can suppress myopia progression through intravitreal injection in a dose-dependent manner; signs of toxicity [2]: no discernible signs of toxicity
